{"source": "patent US20090053280A1", "about": "“COATING STENTS WITH CYCLIC RGD PEPTIDES OR MIMETICS” (priority 2007, published 2009)", "test_system": "Human umbilical vein endothelial cells", "assay": "Millicell migration assay of HUVECs towards a cyclic RGD peptide coated membrane", "type": "cell-based", "details": "2 hours, uncoated membranes", "procedure": "FIG. 7 (Example 5): Bar graph showing the results of migration assays utilizing specialized Millicell culture plates for in vitro testing. HUVECs were seeded onto the inside surface of Millicell membranes and semi-quantified following migration through a microporous membrane at the outside surface after two hours of incubation.\nMillicell culture plate inserts from Millipore were coated with cyclic RGD peptide at the outside surface of the microporous membrane only to stimulate haplotactic cell migration. Human umbilical vein endothelial cells (HUVCEs) were loaded into millicell chambers in completed medium in the presence or absence of paclitaxel or sirolimus, and subsequently incubated for 2 hours at 37 C.°.", "note": "Entries after “also recorded” stand apart in the source; their conditions may differ."}
{"molecule": "CC(=O)O[C@H]1C(=O)[C@@]2(C)[C@H]([C@H](OC(=O)c3ccccc3)[C@]3(O)C[C@H](OC(=O)[C@H](O)[C@@H](NC(=O)c4ccccc4)c4ccccc4)C(C)=C1C3(C)C)[C@]1(OC(C)=O)CO[C@@H]1C[C@@H]2O", "note": "[paclitaxel]", "values": [{"measurement": "Cell migration in the presence of the antiproliferative drug", "value": "marked decrease; also recorded: almost completely abolished"}]}
